This note sets out measurements from patent publication US6673902B2, “Cyclin D binding factor, and uses thereof” (St. Jude Children's Research Hospital, priority 1996, dated 2004).

For test [1], the system named is D-type cyclins. In words: Co-expression with D-type cyclins in Sf9 cells and co-precipitation. The class given is binding, mouse. The protocol: BamHI linkers are added to an XbaI-EcoRV cDNA fragment containing the entire DMP1 coding sequence, and the fragment is inserted into the BamHI site of the pAcYM1 baculovirus vector (37). Production of virus and infection of Spodoptera frugiperda (Sf9) cells are performed as previously described (23). For preparation of radiolabeled cell lysates, cells infected with the indicated recombinant viruses encoding DMP1, CDKs, and/or cyclins are metabolically labeled 40 hours post-infection for 8 additional hours with 50 uCi/ml of [^35S]methionine (1000 Ci/mmol; ICN, Irvine Calif.) in methionine-free medium or for 4 additional hours with 250 uCi/ml of carrier-free ^32P-orthophosphate (9000 Ci/mmol, Amersham) in phosphate-free medium. Cells suspended in 0.25 ml Kinase buffer containing protease and phosphatase inhibitors [2.5 mM EGTA, 0.1 mM phenylmethyl sulfonylfluoride (PMSF), 2% aprotinin, 1 mM β-glycerophosphate, 0.1 mM Na3VO4, and 0.1 mM NaF] are lysed by repeated freezing and thawing and clarified by centrifuigation. […]
We next co-expressed full length DMP1 together with D-type cyclins under baculovirus vector control in insect Sf9 cells. […] Electrophoretic separation of unfractionated metabolically labeled lysates from infected cells enabled direct autoradiographic visualization and relative quantitation of the recombinant mouse proteins (FIG. 3A). […]

For test [2], the system named is wild-type MEFs. In words: BrdU incorporation / cell cycle arrest in wild-type MEFs. It is filed as cell-based, mouse. The note with it: retroviral infection. The protocol:
BrdU incorporation and immunofluorescence. Wild-type or ARF-null MEFs (4×10^4 cells) were seeded on gelatin-coated coverslips 16 hours before virus infection. Cells were infected three times with empty vector, or vectors expressing murine DMP1, human c-Myc, human E2F-1, or human Ets1. Cells were labeled 36 hours after virus infection with bromodeoxyuridine (BrdU, Sigma) for 14 hours in complete medium. For pulse labeling, MEFs were treated with 2 μM4-HT for 36 hours and labeled with BrdU for three hours at different intervals throughout the inductive phase. Cells were fixed in ice-cold methanol-acetone (1:1) for 10 min at −20° C. and then were stained with affinity-purified antibodies to DMP1 (AF) [Hirai and Sherr, Mol. Cell. […]
Based on the above observations, it was determined as to whether introduction of DMP1 would induce synthesis of the endogenous ARF protein in normal diploid fibroblast strains. […] Although the blot was normalized for protein input, the levels of p19^ARF induced by DMP1 were calculated to be 2-fold higher than those induced by Myc, because fewer cells were productively infected with the DMP1 virus in this experiment (see FIG. 15A).
A general note: Uptake of a labelled nucleoside into DNA is a usual measure of proliferation.

In the case of “DMP1: murine cyclin D-associated myb-like transcription factor, 761 amino acids, SEQ ID NO:1”, the “DMP1 molecules forming stable complexes with D-type cyclins” value in test [1] (coexpressed in Sf9 cells) is reported as not above 15%. Further, the cyclin stably bound in test [1] (coinfected Sf9 cells, approximately equivalent levels of protein and cyclin D2 or cyclin D3) is listed as 5-15%. The cell cycle arrest result in test [2] is reported as “underwent cell cycle arrest”.
